Legend:
[1] = tested on: NSCLC PDX explants with autologous CD8+ T cells; test: Co-culture of NSCLC PDX tumor explants with autologous CD8+ T cells, IFNγ ELISA; assay type: cell-based, human
From the text: Two patients bearing metastatic non-small cell lung cancer (NSCLC) were included in this study. Blood samples and fresh tumor tissue samples were procured just after their biopsy with patient consent and with Helsinki approval (number 0093-19-SOR). The samples were placed in serum free DMEM (Gibco) media then processed for implantation in NSG (NOD scid gamma) mice. Tumor tissue samples were implanted subcutaneously in dorsal flanks of the mice to form patient-derived xenografts (PDXs). All animal experiments were done under Institutional Animal Care and Use Committee (IACUC) of Ben-Gurion University of the Negev (BGU’s IACUC) according to specified protocols aiming to ensure animal welfare and reduce su □ ering. The Animal ethical clearance protocol number used for this research is IL-80-12-2015. After isolation of peripheral blood mononuclear cells (PBMCs) from the peripheral blood of the patients according to standard protocol using Lymphocyte Separation Medium (LSM, MP Biomedicals, SKU 0850494-CF), CD8^+ T cells were isolated from PBMCs by employing human CD8 Microbeads (Miltenyi Biotec, 130-045-201), LS column (Miltenyi Biotec, 130-042-401) and MidiMACS Separator (130-042-302) following manufacturer’s protocol. For culturing and maintenance of CD8 T cells, RPMI containing 10% human male AB plasma (Sigma, H4522), 1 mM sodium pyruvate, 2 mM L-glutamine, 0.1 mM MEM non-essential amino acids, 1% penicillin/streptomycin, 10 mM HEPES (Life Technologies), 200 IU/mL recombinant human IL-2 (PeproTech) and 50 ng/mL anti-human CD3 Antibody (BioLegend, 317302) were used for the first 48 hrs followed by culturing and passaging in media containing 200 IU/mL of IL-2.
2×2×2 mm^3 tumor tissue explants were cut from PDXs with a specific tissue cutter and seeded singly in 48 well flat-bottom plates and incubated with either mizoribine (0.3 mM) in 400 µl of media or with only media for 10 hrs. Then, explants were washed once and transferred into new 48 well flat-bottom plates containing 2×10^5 CD8+T cells/well along with nivolumab (Opdivo, 20 µg/mL), pembrolizumab (Keytruda, 20 µg/mL) or mock solventin fresh 400 µl RPMI containing 20 IU/ml ofIL-2. After 18 hours of incubation, the supernatant was collected from the wells and then assayed for standard IFNγ ELISA assay (ELISA MAX, Biolegend) according to manufacturer’s instructions.
Two patients bearing metastatic non-small cell lung cancer (NSCLC) were included in this study. Blood samples and fresh tumor tissue samples were procured just after their biopsy with patient consent and with Helsinki approval (number 0093-19-SOR). The samples were placed in serum free DMEM (Gibco) media then processed for implantation in NSG (NOD scid gamma) mice (NOD.Cg-Prkdcscid Il2rgtm1Wjl, The Jackson Laboratory). Tumor tissue samples were implanted subcutaneously in dorsal flanks of the 7-9 weeks old male mice to form patient-derived xenografts (PDXs).
After isolation of peripheral blood mononuclear cells (PBMCs) from the peripheral blood of the patients according to standard protocol using Lymphocyte Separation Medium (LSM, MP Biomedicals, SKU 0850494-CF), CD8^+ T cells were isolated from PBMCs by employing human CD8 Microbeads (Miltenyi Biotec, 130-045-201), LS column (Miltenyi Biotec, 130-042-401) and MidiMACS Separator (130-042-302) following manufacturer’s protocol. For culturing and maintenance of CD8 T cells, RPMI containing 10% human male AB plasma (Sigma, H4522), 1 mM sodium pyruvate, 2 mM L-glutamine, 0.1 mM MEM non-essential amino acids, 1% penicillin/streptomycin, 10 mM HEPES (Life Technologies), 200 IU/mL recombinant human IL-2 (PeproTech) and 50 ng/mL anti-human CD3 Antibody (BioLegend, 317302) were used for the first 48 hrs followed by culturing and passaging in media containing 200 IU/mL of IL-2.
PDXs from patients with lung cancer non responsive to anti-PD1 were exposed to no treatment, to mizoribine, or to either EDHB (left panel) or Viagra (right panel). […]

4T1 breast cancer cells = test: DNA (whole-exome) sequencing analysis of mutational bias; assay type: cell-based, murine; conditions: 4T1 cells, 300 µM mizoribine, 24 h
Protocol: B) The purine/pyrimidine ratio is increased upon glucose deprivation in murine breast cancer cells. 4T1 cells were grown in the absence of glucose for 24h (baseline) and 48h and quantified by liquid chromatography-mass spectrometry (LC-MS). Nucleotide levels were measured in µg/ml and corrected for protein concentration. Purine/pyrimidine ratio was calculated by dividing (AMP+GMP) by (UMP+CMP) relative concentrations. C) ASS1 inhibition decreases the purine/pyrimidine ration under glucose deprivation. 4T1 cells were grown in the presence or absence of glucose for 48 h and analysed as in 1B. […] Cells were grown and treated as in 5B. […] 4T1 cells were grown either with or without 300 µM mizoribine for 24 h. Nucleotide levels were measured by LC-MS. […] Each experiment was conducted with biological and technical replicates and repeated at least three times. […] Nucleotide levels were measured as described below by LC-MS. Purine/pyrimidine ratio was calculated by dividing (AMP+GMP+ATP+GTP) concentration by (UMP+CMP+TMP+UTP+CTP+TTP) concentration before and after methotrexate. […]
4T1 cells treated as outlined above were followed by lysis and DNA isolation using DNeasy blood and tissue kit (Quiagen). […] Purine to pyrimidine (R>Y) and pyrimidine to purine (Y>R) mutations on the sense strand were counted and pooled per condition to achieve sufficient values for statistical analysis. […]

## NC(=O)c1ncn([C@@H]2O[C@H](CO)[C@@H](O)[C@H]2O)c1O [Mizoribine, mizoribine]
[1]; PDX explant alone treated with mizoribine 0.3 mM, no T cells
  human IFNγ in supernatant, explant alone: did not detect human IFNγ
[1]; explants pre-treated with mizoribine 0.3 mM 10 hrs, nivolumab or pembrolizumab 20 µg/mL, 18 hours
  IFNγ secretion by autologous CD8+ T cells, anti-PD1 plus mizoribine-treated explants: significant elevation in secretion of IFN-γ
[1]; mizoribine-treated explants with autologous CD8+T cells
  human IFNγ levels, explant plus autologous CD8+ T cells, no anti-PD1: did not induce detectable IFNγ levels
4T1 breast cancer cells
  mutational bias by DNA sequencing analysis: pyrimidine mutational bias

Source: patent US20230293530A1, “AGENTS FOR SENSITIZING SOLID TUMORS TO TREATMENT” (Yeda Research and Development Co. Ltd., priority 2020, published 2023)
